{"source": "patent US10881656B2", "about": "“HIF inhibitors and use thereof” (The General Hospital Corporation, priority 2008, dated 2021)", "key": {"HIF-2a": {"tested_on": "HIF-2a", "assay": "HIF-2a protein stability (cycloheximide, 35S-methionine pulse chase)", "assay_type": "cell-based, human", "settings": "786-O cells; for HIF-2a protein stability after cycloheximide: 10 μg/mL cycloheximide", "description": "Cells were treated with medium only, DMSO, or compound as described for western blots. Following the second day of compound incubation, 10 μg/mL cycloheximide (CHx) was added to halt de novo protein synthesis and time points were taken. Protein quantification and Western blots were performed as described.\n(§1) Cells were treated with medium only, DMSO, or compound as described for western blots. Following the second day of treatment, cells were washed twice in PBS and then placed into medium only, DMSO, or labeling medium (methionine minus DMEM supplemented with 1× glutamine and 5% dialyzed FBS) and pulse-labeled for 30 minutes at 37° C. with 0.5 mCi ^35S-Methionine (New England Nuclear) per p100 plate. Cells were washed twice in PBS and lysed with RIPA buffer supplemented with protease inhibitors. […] In the case of the pulse-chase experiment, two identically treated plates were placed into chasing medium (DMEM supplemented with 10% Fetal Clone I, 1× Glutamine and 3 mg/mL methionine), placed back into the 37° C. incubator and harvested after 1.5 and 3 hours. Immunoprecipitated samples were subjected to SDS-PAGE, enhanced in sodium salicylate, dried and exposed for 2-3 days before the film was quantified by densitometry.\nQuantitative RT-PCR was performed on total RNA harvested from 7H4 cells treated with medium only, DMSO or compound. […] To test whether the compounds alter HIF-2a stability, the inventors assessed protein half-life following the addition of cycloheximide in compound versus DMSO-only treated cells (see FIG. 10)."}, "HIF-2a mRNA translation": {"tested_on": "HIF-2a mRNA translation", "assay": "35S-methionine pulse-label immunoprecipitation of HIF-2a (translation)", "assay_type": "cell-based, human", "settings": "786-O cells", "description": "as §1\nThe effect of HIF inhibitors on protein translation was determined by ^35S-methionine pulse labeling DMSO or compound treated cells. […] Pulse chase experiments confirm that this decrease is not attributable to any effect on the protein half-life (see FIG. 11).\nTo determine if PGJ2 decreases translation of the HIF2a message, the inventors evaluated the synthesis rate and stability of the newly synthesized HIF2a by an ^35S-methionine pulse chase experiment on PGJ2 or vehicle only DMSO treated 786-O cells. […] Loading control is 1/1000th of the cell lysate used in the respective immunoprecipitation directly loaded into an SDS-PAGE gel."}, "[1]": {"tested_on": "iron (Fe-(EDHB)3 complex)", "assay": "In vitro iron competition assay", "settings": "0-200 micromolars, absorbance at 500 nm", "description": "This assay was performed similarly to that described previously (Wang et al., 2002). Briefly, displacement of iron from ethyl-3,4-dihydroxybenzoate (EDHB) complex was measured as a decrease in absorbance at 500 nm. Ferric iron, prepared as a 5 mM stock solution of FeC13 in 100 mM sodium citrate, was diluted to 25 μM in the presence of 750 μM EDHB. 1 ml aliquots of this solution were then mixed with 0, 25, 50, 100 or 200 micromolars of compounds 40, 41, 76, and 77 as well as EDTA and DFO for controls. […] The self absorbance of compound 41 in a matched solution lacking Fe-(EDHB)3 was subtracted from the A500 value obtained in the presence of the Fe-(EDHB)3 complex.\nThe inventors next directly tested whether the compounds bind iron by performing a competition assay in which the displacement of iron from ethyl-3,4-dihydroxybenzoate (EDHB), a weakly chelating ester, was measured as a decrease in absorbance at 500 nm. […] In addition, the inventors utilized the Connectivity Map to look for similarities between the induced gene expression signatures of low and high dose DFO and compound treated cells (Lamb et al., 2006). Using this bioinformatic approach, the inventors discovered no significant similarity between the gene expression profile of the compounds and low (chelating) DFO dose, while there was a negative correlation between compound effect and high (HIF stabilizing) DFO dose (see FIG. 13)."}, "HIF-1a": {"tested_on": "HIF-1a", "assay": "Western blot for HIF-1a in hypoxic CWR22R and Hep3B cells", "assay_type": "cell-based, human", "settings": "hypoxia", "description": "The consensus sequence of the loop and the mandatory 5′ cytosine bulge are highlighted with light blue circles. […] Duplicate plates of 786-O derived lines expressing the putative wild-type or mutant HIF-1a IRE were cultured in the presence of compound as described for FIG. 1, with the exception that one set was placed at 1% oxygen for 24 hours following the first day's medium-change. Cells were treated with M, medium only; D, DMSO; or compounds, as indicated at the following concentrations: 40, 40 μM; 41, 30 μM; 76, 10 μM; 77, 5 μM. […] CWR22R or Hep3B cells were treated with compound and subjected to hypoxia as described above. B-Actin is shown for loading control. Cells were treated with M, medium only; D, DMSO; or compounds, as indicated at the following concentrations: 40, 40 μM; 41, 30 μM; 76, 20 μM; 77, 7.5 μM.\nHypoxia stabilized HIF-2a in VHL-reconstituted WT8 cells, but treatment with compounds diminished hypoxia-induced HIF-2a expression (FIG. 3C)."}, "[2]": {"tested_on": "Transferrin Receptor 1 (TfR1) mRNA", "assay": "qRT-PCR for Transferrin Receptor 1 mRNA", "settings": "for Transferrin Receptor 1 mRNA expression: compound treated 786-O cells"}}}
{"smiles": "C/C(=C\\c1ccccc1)C(=O)CCN(C)C.Cl", "note": "[Compound 40, 5-(dimethylamino)-2-methyl-1-phenyl-1-penten-3-one hydrochloride]", "values": [{"measurement": "HIF-2a protein stability by 35S-methionine pulse chase", "setting": "HIF-2a", "result": "have no affect on HIF-2a protein stability"}, {"measurement": "HIF-2a protein stability after cycloheximide", "setting": "HIF-2a", "result": "no compound of 40, 41, 76 and 77 significantly affects HIF-2a stability"}, {"measurement": "HIF-2a mRNA translation (newly synthesized HIF-2a protein)", "setting": "HIF-2a mRNA translation", "result": "decrease HIF-2a mRNA translation"}, {"measurement": "displacement of iron from EDHB complex (iron chelation)", "setting": "[1]", "result": "are not iron chelators"}, {"measurement": "hypoxic induction of HIF-1a", "setting": "HIF-1a", "result": "indirectly suppress hypoxic induction of HIF-1a in multiple cell types"}, {"measurement": "Transferrin Receptor 1 mRNA expression", "setting": "[2]", "result": "increase expression of Transferrin Receptor 1 mRNA"}]}
{"smiles": "COc1ccc(O)c(/C=C/C(=O)c2c(O)cc(C)oc2=O)c1", "note": "[Compound 41, 4-hydroxy-3-[3-(2-hydroxy-5-meoxyphenyl)acryloyl]-6-methyl-2H-pyran-2-one]", "values": [{"measurement": "HIF-2a protein stability by 35S-methionine pulse chase", "setting": "HIF-2a", "result": "have no affect on HIF-2a protein stability"}, {"measurement": "HIF-2a protein stability after cycloheximide", "setting": "HIF-2a", "result": "no compound of 40, 41, 76 and 77 significantly affects HIF-2a stability"}, {"measurement": "HIF-2a mRNA translation (newly synthesized HIF-2a protein)", "setting": "HIF-2a mRNA translation", "result": "decrease HIF-2a mRNA translation"}, {"measurement": "displacement of iron from EDHB complex (iron chelation)", "setting": "[1]", "result": "are not iron chelators"}, {"measurement": "hypoxic induction of HIF-1a", "setting": "HIF-1a", "result": "indirectly suppress hypoxic induction of HIF-1a in multiple cell types"}, {"measurement": "Transferrin Receptor 1 mRNA expression", "setting": "[2]", "result": "increase expression of Transferrin Receptor 1 mRNA"}]}
{"smiles": "COC(=O)c1sccc1N/N=C(/C#N)S(C)(=O)=O", "note": "[Compound 76, methyl 3-{2-[cyano(methylsulfonyl)methylene] hydrazino}thiophene-2-carboxylate]", "values": [{"measurement": "HIF-2a protein stability by 35S-methionine pulse chase", "setting": "HIF-2a", "result": "have no affect on HIF-2a protein stability"}, {"measurement": "HIF-2a protein stability after cycloheximide", "setting": "HIF-2a", "result": "no compound of 40, 41, 76 and 77 significantly affects HIF-2a stability"}, {"measurement": "HIF-2a mRNA translation (newly synthesized HIF-2a protein)", "setting": "HIF-2a mRNA translation", "result": "decrease HIF-2a mRNA translation"}, {"measurement": "displacement of iron from EDHB complex (iron chelation)", "setting": "[1]", "result": "are not iron chelators"}, {"measurement": "hypoxic induction of HIF-1a", "setting": "HIF-1a", "result": "indirectly suppress hypoxic induction of HIF-1a in multiple cell types"}, {"measurement": "TfR1 mRNA stability", "setting": "[2]; 786-O cells following addition of Actinomycin D", "result": "decreases TfR1 mRNA stability"}, {"measurement": "Transferrin Receptor 1 mRNA expression", "setting": "[2]", "result": "increase expression of Transferrin Receptor 1 mRNA"}]}
{"smiles": "CC1(C)CC(=O)C=C(Sc2ccc(C#N)cc2[N+](=O)[O-])S1", "note": "[Compound 77, 4-[(2,2-dimethyl-4-oxo-3,4-dihydro-2H-thiin-6-yl)thio]-3-nitrobenzonitrile]", "values": [{"measurement": "HIF-2a protein stability by 35S-methionine pulse chase", "setting": "HIF-2a", "result": "have no affect on HIF-2a protein stability"}, {"measurement": "HIF-2a protein stability after cycloheximide", "setting": "HIF-2a", "result": "no compound of 40, 41, 76 and 77 significantly affects HIF-2a stability"}, {"measurement": "HIF-2a mRNA translation (newly synthesized HIF-2a protein)", "setting": "HIF-2a mRNA translation", "result": "decrease HIF-2a mRNA translation"}, {"measurement": "displacement of iron from EDHB complex (iron chelation)", "setting": "[1]", "result": "are not iron chelators"}, {"measurement": "hypoxic induction of HIF-1a", "setting": "HIF-1a", "result": "indirectly suppress hypoxic induction of HIF-1a in multiple cell types"}, {"measurement": "Transferrin Receptor 1 mRNA expression", "setting": "[2]", "result": "increase expression of Transferrin Receptor 1 mRNA"}]}
{"smiles": "CCCCC/C=C/C=C1/C(=O)C=C[C@@H]1C/C=C\\CCCC(=O)O", "note": "[PGJ2, 15-deoxy-Δ^12,14-prostaglandin J2]", "values": [{"measurement": "HIF-2a protein stability after cycloheximide", "setting": "HIF-2a", "result": "no indication that PGJ2 affects HIF2a protein half-life"}, {"measurement": "HIF-2a mRNA translation (newly synthesized HIF-2a protein)", "setting": "HIF-2a mRNA translation", "result": "significantly decrease the amount of protein translated from the mRNA without decreasing the half-life of the protein"}, {"measurement": "displacement of iron from EDHB complex (iron chelation)", "setting": "[1]", "result": "not an iron chelator"}]}
